For one assay, the system named is DLD-1 cells. Put plainly: Inhibition of proliferation, DLD-1 BRCA2 wt control (Cell Titre Glo 3D). Type of assay: cell-based. To be noted: for IC50: Homo sapiens. The procedure, abridged:
(§1)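 Read-out: CellTiter-Glo 3D luminescence, day 7 for wt DLD-1, day 12 for BRCA2−/−, about 8-9 population doublings each. Seeding 1,500 or 3,000 cells/mL respectively. Dose range 10 μM–0.51 nM, 3-fold, 10 points, with re-dosing on day 6. IC50 from curve fit.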

A further assay deals with DLD-1 BRCA2−/− cells. Put plainly: Homologous recombination synthetic lethal inhibition of proliferation, DLD-1 BRCA2-/- (Cell Titre Glo 3D). Type of assay: cell-based. To be noted: Homo sapiens. The procedure, abridged: as §1
Where [1] appears, read: DLD-1, second proliferation column (c6), DLD-1 BRCA2 wt control, read-out: POLQ PD Prolif Lumin (converted).
Setting [2] is: DLD-1, first proliferation column (c5), DLD-1 BRCA2-/-, read-out: POLQ PD Prolif Lumin (converted).
Setting [3] is: DLD-1, second proliferation column (c6), taken as DLD-1 BRCA2 wt, read-out: POLQ PD Prolif Lumin (converted).
Where [4] appears, read: DLD-1, first proliferation column (c5), taken as DLD-1 BRCA2-/-, read-out: POLQ PD Prolif Lumin (converted).
Where [5] appears, read: DLD-1, DLD1 BRCA2 wt cells, mean, read-out: POLQ PD Prolif Lumin DLD1 mean PIC50 (converted).
Where [6] appears, read: DLD-1, DLD-1 BRCA2 −/− cells, mean, read-out: POLQ PD Prolif Lumin BRCA2 −/− mean pIC50 (converted).
Where [7] appears, read: DLD-1, 168 h, DLD-1 BRCA2 wt cells, 7 days, read-out: POLQ PD Prolif Lumin DLD1 mean pIC50 (converted).
[8] abbreviates: DLD-1, 288 h, DLD-1 BRCA2−/− cells, 12 days, read-out: POLQ PD Prolif Lumin BRCA2 −/− mean pIC50 (converted).

Where two headings read alike, the source gives them in different places. Bounds are passed on as bounds.

As to `Cc1ccnc(Cn2c(-c3ccc(OC4CNC(=O)OC4)cc3Cl)nc3c(OC4(C)CC4)ncnc32)c1` (racemic) [Example T187, 5-(3-chloro-4-(6-(1-methylcyclopropoxy)-9-((4-methylpyridin-2-yl)methyl)-9H-purin-8-yl)phenoxy)-1,3-oxazinan-2-one], the IC50 is above 10000 nM in the assay on DLD-1 cells (setting [1]) and 1000 nM in the assay on DLD-1 BRCA2−/− cells (setting [2]).
Consider `CC1(Oc2ncnc3c2nc(-c2ccc(OCCN4CCN(S(=O)(=O)O)CC4)cc2Cl)n3Cc2cc(Cl)ccn2)CC1` [Example T380, 4-(2-(3-chloro-4-(9-((4-chloropyridin-2-yl)methyl)-6-(1-methylcyclopropoxy)-9H-purin-8-yl)phenoxy)ethyl)piperazine-1-sulfonic acid], for which the IC50 was above 10000 nM in the assay with DLD-1 cells (setting [3]) and 7940 nM in the assay with DLD-1 BRCA2−/− cells (setting [4]).
With `CNCCOc1ccc(-c2nc3c(OC4(C)CC4)ncnc3n2Cc2cc(Cl)ccn2)c(Cl)c1` [Example T67, 2-(3-chloro-4-(9-((4-chloropyridin-2-yl)methyl)-6-(1-methylcyclopropoxy)-9H-purin-8-yl)phenoxy)-N-methylethan-1-amine], the values for the IC50 in the assay on DLD-1 cells (setting [5]) and with DLD-1 BRCA2−/− cells (setting [6]) were above 10000 nM and 126 nM, respectively.
In the case of `CC(C)Oc1ccc2c(c1)nc(-c1ccc(OC3CCCN(C)CC3)cc1Cl)n2Cc1ccccc1` (single isomer, unassigned) [Example A10, 1-benzyl-2-(2-chloro-4-((1-methylazepan-4-yl)oxy)phenyl)-5-isopropoxy-1H-benzo[d]imidazole], the figures for the IC50 with DLD-1 cells (setting [7]) and in the assay with DLD-1 BRCA2−/− cells (setting [8]) were 2510 nM and 794 nM, respectively.
Take `COc1cccc(-c2nc3c(OC4(C)CC4)ncnc3n2Cc2ccccc2)c1Cl` [Example C6, 9-benzyl-8-(2-chloro-3-methoxyphenyl)-6-(1-methylcyclopropoxy)-9H-purine]: the IC50 was above 10000 nM in the assay with DLD-1 cells (setting [7]) and 79.4 nM in the assay with DLD-1 BRCA2−/− cells (setting [8]).
For `CNC(=O)COc1cccc(-c2nc3c(OC4(C)CC4)ncnc3n2Cc2cc(C)ccn2)c1Cl` [Example T120, 2-(2-chloro-3-(6-(1-methylcyclopropoxy)-9-((4-methylpyridin-2-yl)methyl)-9H-purin-8-yl)phenoxy)-N-methylacetamide], the IC50 in the assay with DLD-1 cells (setting [1]) is above 6310 nM; with DLD-1 BRCA2−/− cells (setting [2]) it was 158 nM.
As to `Cc1nc(Cn2c(-c3ccc(OCCN4CCN(C)CC4)cc3Cl)nc3c(OC4(C)CC4)ncnc32)cs1` [Example 7, 4-((8-(2-Chloro-4-(2-(4-methylpiperazin-1-yl)ethoxy)phenyl)-6-(1-methylcyclopropoxy)-9H-purin-9-yl)methyl)-2-methylthiazole], the IC50 with DLD-1 cells (setting [7]) was above 10000 nM; in the assay on DLD-1 BRCA2−/− cells (setting [8]) it was 794 nM.
As to `CN1CCCC1CCOc1ccc(-c2nc3c(OC4(C)CC4)ncnc3n2Cc2ccccc2)c(Cl)c1` (single isomer, unassigned) [Example D3, 9-benzyl-8-(2-chloro-4-(2-(1-methylpyrrolidin-2-yl)ethoxy)phenyl)-6-(1-methylcyclopropoxy)-9H-purine], the “POLQ PD Prolif Lumin DLD1 mean pIC50” value in the assay on DLD-1 cells (DLD-1 BRCA2 wt cells, 7 days) is 5.7. Further, the IC50 in the assay on DLD-1 BRCA2−/− cells (setting [8]) is 63.1 nM.
Regarding `CC1(Oc2ncnc3c2nc(-c2ccc(OCCN4CC[C@@H](O)C4)cc2Cl)n3Cc2ccccc2)CC1` [Example H13, (R)-1-(2-(4-(9-benzyl-6-(1-methylcyclopropoxy)-9H-purin-8-yl)-3-chlorophenoxy)ethyl)pyrrolidin-3-ol], the figures for the IC50 in the assay with DLD-1 cells (setting [7]) and with DLD-1 BRCA2−/− cells (setting [8]) were 3160 nM and 100 nM, respectively.
As to `Cc1ccnc(Cn2c(-c3ccc(OC4CCNCC4)cc3Cl)nc3c(OC4(C)CC4)ncnc32)c1` [Example T354, 8-(2-chloro-4-(piperidin-4-yloxy)phenyl)-6-(1-methylcyclopropoxy)-9-((4-methylpyridin-2-yl)methyl)-9H-purine], the IC50 in the assay with DLD-1 cells (setting [3]) was above 10000 nM; with DLD-1 BRCA2−/− cells (setting [4]) it was 501 nM.
`Cc1ccnc(Cn2c(-c3ccc(CC(=O)N4C[C@@H](C)N[C@@H](C)C4)cc3Cl)nc3c(OC4(C)CC4)ncnc32)c1` [Example T606, 2-(3-chloro-4-(6-(1-methylcyclopropoxy)-9-((4-methylpyridin-2-yl)methyl)-9H-purin-8-yl)phenyl)-1-((3R,5S)-3,5-dimethylpiperazin-1-yl)ethan-1-one]: the IC50 in the assay with DLD-1 cells (DLD-1, second proliferation column, DLD-1 BRCA2 wt control, read-out: POLQ PD Prolif Lumin (converted)) was above 10000 nM; in the assay with DLD-1 BRCA2−/− cells (DLD-1, first proliferation column, DLD-1 BRCA2-/-, read-out: POLQ PD Prolif Lumin (converted)) it was 794 nM.
`Cc1ccnc(Cn2c(-c3ccc(C(=O)N4CC5CC(C4)N5)cc3Cl)nc3c(OC4(C)CC4)ncnc32)c1` [Example T427, (3,6-diazabicyclo[3.1.1]heptan-3-yl)(3-chloro-4-(6-(1-methylcyclopropoxy)-9-((4-methylpyridin-2-yl)methyl)-9H-purin-8-yl)phenyl)methanone]: the IC50 is above 10000 nM in the assay with DLD-1 cells (DLD-1, proliferation, luminescence, second Prolif column (c6), taken as DLD-1 BRCA2 wt control, read-out: POLQ PD Prolif Lumin (converted)) and 7940 nM with DLD-1 BRCA2−/− cells (DLD-1, proliferation, luminescence, taken as DLD-1 BRCA2-/-, read-out: POLQ PD Prolif Lumin (converted)).
`CNC(=O)c1ccc(-c2nc3c(OC4(C)CC4)ncnc3n2Cc2cc(C)ccn2)c(Cl)c1` [Example T52, 3-chloro-N-methyl-4-(6-(1-methylcyclopropoxy)-9-((4-methylpyridin-2-yl)methyl)-9H-purin-8-yl)benzamide]: the IC50 in the assay on DLD-1 cells (setting [5]) was above 10000 nM; with DLD-1 BRCA2−/− cells (setting [6]), 501 nM.
In the case of `CC1(Oc2ncnc3c2nc(-c2ccc(OCCN4CCNC5(CC5)C4)cc2Cl)n3Cc2ccccc2)CC1` [Example R17, 8-(4-(2-(4,7-diazaspiro[2.5]octan-7-yl)ethoxy)-2-chlorophenyl)-9-benzyl-6-(1-methylcyclopropoxy)-9H-purine], the IC50 with DLD-1 cells (setting [7]) was 1000 nM; in the assay with DLD-1 BRCA2−/− cells (setting [8]) it was 100 nM.
`CC1(Oc2ncnc3c2nc(-c2ccc(OCCCC(=O)O)cc2Cl)n3Cc2cccc(Cl)c2)CC1` [Example 44, 4-(3-Chloro-4-(9-(3-chlorobenzyl)-6-(1-methylcyclopropoxy)-9H-purin-8-yl)phenoxy)butanoic acid]: the IC50 is above 10000 nM with DLD-1 cells (DLD-1, 168 h, DLD-1 (BRCA2 wt control), 7 days, Cell Titre Glo 3D, read-out: POLQ PD Prolif Lumin DLD1 Mean pIC50 (converted)) and 158 nM in the assay on DLD-1 BRCA2−/− cells (DLD-1, 288 h, DLD-1 BRCA2−/−, 12 days, Cell Titre Glo 3D, read-out: POLQ PD Prolif Lumin BRCA2 −/− Mean pIC50 (converted)).
For `CC1(Oc2ncnc3c2nc(-c2cccc(OCCN4CCNCC4)c2Cl)n3Cc2ccccc2)CC1` [Example D10, 9-benzyl-8-(2-chloro-3-(2-(piperazin-1-yl)ethoxy)phenyl)-6-(1-methylcyclopropoxy)-9H-purine], the IC50 with DLD-1 cells (setting [7]) was 5010 nM; with DLD-1 BRCA2−/− cells (setting [8]) it was 126 nM.
For the molecule `CC1(Oc2ncnc3c2nc(-c2ccc(OCCCOCC(=O)O)cc2Cl)n3Cc2cccc(Cl)c2)CC1` [Example T302, 2-(3-(3-chloro-4-(9-(3-chlorobenzyl)-6-(1-methylcyclopropoxy)-9H-purin-8-yl)phenoxy)propoxy)acetic acid], the IC50 in the assay on DLD-1 cells (setting [3]) was above 10000 nM; in the assay on DLD-1 BRCA2−/− cells (setting [4]) it was 316 nM.
For the molecule `CN1CCN(CCOc2ccc(-c3nc4c(OC5(C)CC5)ncnc4n3Cc3cccc(F)c3F)c(Cl)c2)CC1` [Example E3, 8-(2-chloro-4-(2-(4-methylpiperazin-1-yl)ethoxy)phenyl)-9-(2,3-difluorobenzyl)-6-(1-methylcyclopropoxy)-9H-purine], the IC50 in the assay with DLD-1 cells (setting [7]) is 3980 nM; with DLD-1 BRCA2−/− cells (setting [8]) it was 50.1 nM.
Consider `CC1(Oc2ncnc3c2nc(-c2ccc(O[C@@H]4CCCNC4)cc2Cl)n3Cc2ccccc2)CC1` [Example D32, (R)-9-benzyl-8-(2-chloro-4-(piperidin-3-yloxy)phenyl)-6-(1-methylcyclopropoxy)-9H-purine], for which the IC50 was 6310 nM with DLD-1 cells (setting [7]) and 126 nM with DLD-1 BRCA2−/− cells (setting [8]).
Turning to `Cc1cc(OCCCN2CCCC2)ncc1-c1nc2c(OC3(C)CC3)ncnc2n1Cc1ccccc1` [Example G5, 9-benzyl-8-(4-methyl-6-(3-(pyrrolidin-1-yl)propoxy)pyridin-3-yl)-6-(1-methylcyclopropoxy)-9H-purine], the IC50 is 7940 nM in the assay with DLD-1 cells (setting [7]) and 398 nM with DLD-1 BRCA2−/− cells (setting [8]).

(Values after US20250195530A1, “POLQ INHIBITORS” (ASTRAZENECA AB, priority 2022, published 2025).)
